The experiment concerns MOLT-4 cancer cell line. Nature of the experiment: Cell proliferation assay, MOLT-4 cancer cell line (ATPlite).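 Note: luminescence read-out, percent growth versus compound-free DMSO wells as maximum growth, start-of-incubation signal separating growth from cell death, IC50 from logistic curve fit.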 It is filed as cell-based. Particulars: Homo sapiens, MOLT-4; 72 hours incubation, ATPlite 1Step; read-out: IC50 MOLT-4 cell proliferation.
Procedure: 5 μL of compound solution was added and the plates were incubated for an additional 72 hours after which 25 μL of ATPlite 1Step™ (PerkinElmer, Groningen, The Netherlands) solution was added to each well. Luminescence was recorded on an Envision multimode reader. The cell signal at the start of incubation was recorded separately in order to distinguish between cell population growth and cell death. In addition, maximum growth was determined by incubation of a duplicate without compound in the presence of 0.4% DMSO. Percentage growth was used as the main y-axis signal. IC50s were fitted by non-linear regression using IDBS XLfit™5 using a 4-parameter logistic curve, yielding a maximum signal, minimum signal, hill-parameter and IC50.
`COc1cc(C(=O)NCC(C)(C)O)ccc1Nc1ncc2c(n1)-n1ccc(C(=O)Nc3c(C)cccc3C)c1CC2` [Example 1, N-(2,6-dimethylphenyl)-2-[4-[(2-hydroxy-2-methyl-propyl)carbamoyl]-2-methoxy-anilino]-5,6-dihydropyrimido[4,5-e]indolizine-7-carboxamide]: the IC50 was < 50 nM.

In the case of `Cc1cc(N2CCN(C)CC2)ccc1Nc1ncc2c(n1)-n1ccc(C(=O)Nc3c(C)cccc3Cl)c1CC2` [Example 2, N-(2-chloro-6-methyl-phenyl)-2-[2-methyl-4-(4-methylpiperazin-1-yl)anilino]-5,6-dihydropyrimido[4,5-e]indolizine-7-carboxamide], the IC50 is < 50 nM.

As for `COc1cc(N2CCOCC2)ccc1Nc1ncc2c(n1)-n1ccc(C(=O)Nc3c(C)cccc3Br)c1CC2` [Example 3, N-(2-bromo-6-methyl-phenyl)-2-(2-methoxy-4-morpholino-anilino)-5,6-dihydropyrimido[4,5-e]indolizine-7-carboxamide], the IC50 lay in the range of 50 to 150 nM.

`CCc1cccc(C)c1NC(=O)c1ccn2c1CCc1cnc(Nc3ccc(N4CCN(C)CC4)cc3)nc1-2` [Example 4, N-(2-ethyl-6-methyl-phenyl)-2-[4-(4-methylpiperazin-1-yl)anilino]-5,6-dihydropyrimido[4,5-e]indolizine-7-carboxamide]: the IC50 was < 50 nM.

In the case of `Cc1cccc(Cl)c1NC(=O)c1ccn2c1CCc1cnc(Nc3ccc(N4CCOCC4)nc3C)nc1-2` [Example 5, N-(2-chloro-6-methyl-phenyl)-2-[(2-methyl-6-morpholino-3-pyridyl)amino]-5,6-dihydropyrimido[4,5-e]indolizine-7-carboxamide], the IC50 was < 50 nM.

Consider `Cc1cccc(C)c1NC(=O)c1ccn2c1CCc1cnc(Nc3ccc(C(=O)NC4CCN(C)CC4)cc3F)nc1-2` [Example 7, N-(2,6-dimethylphenyl)-2-[2-fluoro-4-[(1-methyl-4-piperidyl)carbamoyl]anilino]-5,6-dihydropyrimido[4,5-e]indolizine-7-carboxamide], for which the IC50 fell in the range of 50 to 150 nM.

Take `CCc1n[nH]c(CC)c1NC(=O)c1ccn2c1CCc1cnc(Nc3ccc(N4CCN(C)CC4)cc3C)nc1-2` [Example 9, N-(3,5-diethyl-1H-pyrazol-4-yl)-2-[2-methyl-4-(4-methylpiperazin-1-yl)anilino]-5,6-dihydropyrimido[4,5-e]indolizine-7-carboxamide]: the IC50 is < 50 nM.

On to `COc1cc(N2CCN(C)CC2)ccc1Nc1ncc2c(n1)-n1ccc(C(=O)Nc3c(C)cccc3OC)c1CC2` [Example 10, N-(2-methoxy-6-methyl-phenyl)-2-[2-methoxy-4-(4-methylpiperazin-1-yl)anilino]-5,6-dihydropyrimido[4,5-e]indolizine-7-carboxamide], for which the IC50 lay in the range of 50 to 150 nM.

For the compound `COc1cc(N2CCN(C)CC2)ccc1Nc1ncc2c(n1)-n1ccc(C(=O)Nc3c(C(C)C)cccc3C(C)C)c1CC2` [Example 11, N-(2,6-diisopropylphenyl)-2-[2-methoxy-4-(4-methylpiperazin-1-yl)anilino]-5,6-dihydropyrimido[4,5-e]indolizine-7-carboxamide], the IC50 lay in the range of 50 to 150 nM.

Regarding `CCc1nn(CCOC)c(CC)c1NC(=O)c1ccn2c1CCc1cnc(Nc3ccc(OC4CCN(C)CC4)cc3C)nc1-2` [Example 13, N-[3,5-diethyl-1-(2-methoxyethyl)pyrazol-4-yl]-2-[2-methyl-4-[(1-methyl-4-piperidyl)oxy]anilino]-5,6-dihydropyrimido[4,5-e]indolizine-7-carboxamide], the IC50 is < 50 nM.

For the compound `CCOc1cc(C(=O)NC2CCN(C)CC2)ccc1Nc1ncc2c(n1)-n1ccc(C(=O)Nc3c(C)cccc3CC)c1CC2` [Example 14, 2-[2-Ethoxy-4-[(1-methyl-4-piperidyl)carbamoyl]anilino]-N-(2-ethyl-6-methyl-phenyl)-5,6-dihydropyrimido[4,5-e]indolizine-7-carboxamide], the IC50 was 50 to 150 nM.

Consider `COc1cc(OC2CCN(C)CC2)ccc1Nc1ncc2c(n1)-n1ccc(C(=O)Nc3c(C)n[nH]c3C)c1CC2` [Example 15, N-(3,5-dimethyl-1H-pyrazol-4-yl)-2-[2-methoxy-4-[(1-methyl-4-piperidyl)oxy]anilino]-5,6-dihydropyrimido[4,5-e]indolizine-7-carboxamide], for which the IC50 was in the range of 50 to 150 nM.

With `COCCn1nc(C)c(NC(=O)c2ccn3c2CCc2cnc(Nc4ccc(N5CCNCC5)cc4OC)nc2-3)c1C` [Example 16, N-[1-(2-methoxyethyl)-3,5-dimethyl-pyrazol-4-yl]-2-(2-methoxy-4-piperazin-1-yl-anilino)-5,6-dihydropyrimido[4,5-e]indolizine-7-carboxamide], the IC50 lay in the range of 50 to 150 nM.

With `COc1cc(N2CCNCC2)ccc1Nc1ncc2c(n1)-n1ccc(C(=O)Nc3c(C)cccc3C)c1CC2` [Example 17, N-(2,6-dimethylphenyl)-2-(2-methoxy-4-piperazin-1-yl-anilino)-5,6-dihydropyrimido[4,5-e]indolizine-7-carboxamide], the IC50 was < 50 nM.

Regarding `CCc1n[nH]c(CC)c1NC(=O)c1ccn2c1CCc1cnc(Nc3ccc(N4CCNCC4)cc3OC)nc1-2` [Example 18, N-(3,5-diethyl-1H-pyrazol-4-yl)-2-(2-methoxy-4-piperazin-1-ylanilino)-5,6-dihydropyrimido[4,5-e]indolizine-7-carboxamide], the IC50 was < 50 nM.

As to `CCc1nn(CCOC)c(CC)c1NC(=O)c1ccn2c1CCc1cnc(Nc3ccc(N4CCNCC4)cc3OC)nc1-2` [Example 19, N-[3,5-diethyl-1-(2-methoxyethyl)pyrazol-4-yl]-2-(2-methoxy-4-piperazin-1-yl-anilino)-5,6-dihydropyrimido[4,5-e]indolizine-7-carboxamide], the IC50 was < 50 nM.

As to `CCc1cccc(CC)c1NC(=O)c1ccn2c1CCc1cnc(Nc3ccc(N4CCN(C)CC4)cc3OC)nc1-2` [Example 20, N-(2,6-diethylphenyl)-2-[2-methoxy-4-(4-methylpiperazin-1-yl)anilino]-5,6-dihydropyrimido[4,5-e]indolizine-7-carboxamide], the IC50 fell in the range of 50 to 150 nM.

With `COc1cc(N2CCN(C)CC2)ccc1Nc1ncc2c(n1)-n1ccc(C(=O)Nc3c(C)cc(C)cc3C)c1CC2` [Example 22, 2-[2-Methoxy-4-(4-methylpiperazin-1-yl)anilino]-N-(2,4,6-trimethylphenyl)-5,6-dihydropyrimido[4,5-e]indolizine-7-carboxamide], the IC50 was < 50 nM.

Regarding `COc1cc(N2CCN(C)CC2)ccc1Nc1ncc2c(n1)-n1ccc(C(=O)Nc3c(C)cccc3CO)c1CC2` [Example 23, N-[2-(hydroxymethyl)-6-methyl-phenyl]-2-[2-methoxy-4-(4-methylpiperazin-1-yl)anilino]-5,6-dihydropyrimido[4,5-e]indolizine-7-carboxamide], the IC50 was in the range of 50 to 150 nM.

On to `COc1cc(N2CCN(C)CC2)ccc1Nc1ncc2c(n1)-n1ccc(C(=O)Nc3c(C)cccc3F)c1CC2` [Example 24, N-(2-fluoro-6-methyl-phenyl)-2-[2-methoxy-4-(4-methylpiperazin-1-yl)anilino]-5,6-dihydropyrimido[4,5-e]indolizine-7-carboxamide], for which the IC50 lay in the range of 50 to 150 nM.

As to `COc1cc(N2CCN(C)CC2)ccc1Nc1ncc2c(n1)-n1ccc(C(=O)Nc3c(C)ccnc3Cl)c1CC2` [Example 25, N-(2-chloro-4-methyl-3-pyridyl)-2-[2-methoxy-4-(4-methylpiperazin-1-yl)anilino]-5,6-dihydropyrimido[4,5-e]indolizine-7-carboxamide], the IC50 lay in the range of 50 to 150 nM.

Source of the values: patent publication USRE50082E1, “(5,6-dihydro)pyrimido[4,5-e]indolizines” (NETHERLANDS TRANSLATIONAL RESEARCH CENTER B.V., priority 2014, dated 2024).
